Results taken from PMC5786444, “Structural Basis for the Substrate Inhibition of Proline Utilization A by Proline” (Molecules : A Journal of Synthetic Chemistry and Natural …, 2017).

What was measured:
[1] = target: T1, Proline utilization A (BjPutA) (Bradyrhizobium diazoefficiens, UniProt Q89E26, C792A); assay: X-ray crystal structure, […] Å, crystals soaked in […] L-proline; format: binding
T1 construct: gene putA; BjPutA C792A; 1949 of 2002 expected residues modeled in the asymmetric unit (dimer)
T1 sequence (Q89E26 1-999 C792A): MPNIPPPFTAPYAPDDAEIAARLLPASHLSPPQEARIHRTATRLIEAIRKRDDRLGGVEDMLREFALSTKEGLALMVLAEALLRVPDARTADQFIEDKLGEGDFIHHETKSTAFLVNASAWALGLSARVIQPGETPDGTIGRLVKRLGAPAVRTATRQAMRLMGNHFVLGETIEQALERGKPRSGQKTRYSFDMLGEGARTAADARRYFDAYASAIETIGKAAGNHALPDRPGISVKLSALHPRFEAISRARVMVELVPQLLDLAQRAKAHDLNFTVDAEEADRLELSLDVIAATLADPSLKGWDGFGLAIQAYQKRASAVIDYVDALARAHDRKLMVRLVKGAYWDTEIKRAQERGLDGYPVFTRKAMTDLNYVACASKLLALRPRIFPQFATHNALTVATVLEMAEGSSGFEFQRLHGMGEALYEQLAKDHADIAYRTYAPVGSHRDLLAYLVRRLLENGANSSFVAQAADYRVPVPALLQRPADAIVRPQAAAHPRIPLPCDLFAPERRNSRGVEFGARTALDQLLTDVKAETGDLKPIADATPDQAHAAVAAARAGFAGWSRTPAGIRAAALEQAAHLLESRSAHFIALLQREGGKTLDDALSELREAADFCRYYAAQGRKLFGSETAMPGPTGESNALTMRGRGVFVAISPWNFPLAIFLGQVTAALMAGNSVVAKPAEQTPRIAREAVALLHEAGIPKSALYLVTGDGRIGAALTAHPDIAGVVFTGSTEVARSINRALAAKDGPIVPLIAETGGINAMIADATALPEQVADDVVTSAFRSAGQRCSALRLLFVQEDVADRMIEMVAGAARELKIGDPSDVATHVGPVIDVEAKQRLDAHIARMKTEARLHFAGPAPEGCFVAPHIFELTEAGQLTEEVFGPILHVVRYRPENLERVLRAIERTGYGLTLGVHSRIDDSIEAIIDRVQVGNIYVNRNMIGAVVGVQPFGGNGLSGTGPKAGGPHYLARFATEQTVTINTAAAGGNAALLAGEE

[2] = target: T2, Proline utilization A (BjPutA) (Bradyrhizobium diazoefficiens, UniProt Q89E26, R456M); assay: steady-state GSALDH kinetics (NADH formation at […] nm), global fit to competitive inhibition; format: biochemical
T2 construct: gene putA; BjPutA R456M mutant (GSALDH activity measured)
T2 sequence (Q89E26 1-999 R456M): T1 sequence (Q89E26 1-999 C792A)

NC(CCC=O)C(=O)O = tested on: T3, NC(CCC=O)C(=O)O; assay: purified protein; format: biochemical, Bradyrhizobium diazoefficiens; settings: NAD+ GSAL site of the GSALDH active site
T3 construct: BjPutA R456M mutant (GSALDH activity measured)

| Compound | X-ray crystal structure, 2.15 Å, crystals soaked in 2 M L-proline [1] | Ki [2] | Km (NC(CCC=O)C(=O)O) |
| --- | --- | --- | --- |
| O=C(O)[C@@H]1CCCN1 [L-proline] | The carboxylate group interacts with Arg791, Ser793, and the backbone amine groups of Gly946 and Ala947. | 46.3 mM | – |
| Proline utilization A (BjPutA) (Bradyrhizobium diazoefficiens USDA 110; R456M) | – | – | 2400 µM |
